Test results: ChEMBL document CHEMBL1201862, “PubChem BioAssay data set” (2004)
Active and inactive are the calls of the source.

Assays:
[1] = molecular target: T1, Histone-lysine N-methyltransferase NSD2 (Homo sapiens, UniProt O96028); assay type: biochemical
T1 sequence (O96028 whole entry): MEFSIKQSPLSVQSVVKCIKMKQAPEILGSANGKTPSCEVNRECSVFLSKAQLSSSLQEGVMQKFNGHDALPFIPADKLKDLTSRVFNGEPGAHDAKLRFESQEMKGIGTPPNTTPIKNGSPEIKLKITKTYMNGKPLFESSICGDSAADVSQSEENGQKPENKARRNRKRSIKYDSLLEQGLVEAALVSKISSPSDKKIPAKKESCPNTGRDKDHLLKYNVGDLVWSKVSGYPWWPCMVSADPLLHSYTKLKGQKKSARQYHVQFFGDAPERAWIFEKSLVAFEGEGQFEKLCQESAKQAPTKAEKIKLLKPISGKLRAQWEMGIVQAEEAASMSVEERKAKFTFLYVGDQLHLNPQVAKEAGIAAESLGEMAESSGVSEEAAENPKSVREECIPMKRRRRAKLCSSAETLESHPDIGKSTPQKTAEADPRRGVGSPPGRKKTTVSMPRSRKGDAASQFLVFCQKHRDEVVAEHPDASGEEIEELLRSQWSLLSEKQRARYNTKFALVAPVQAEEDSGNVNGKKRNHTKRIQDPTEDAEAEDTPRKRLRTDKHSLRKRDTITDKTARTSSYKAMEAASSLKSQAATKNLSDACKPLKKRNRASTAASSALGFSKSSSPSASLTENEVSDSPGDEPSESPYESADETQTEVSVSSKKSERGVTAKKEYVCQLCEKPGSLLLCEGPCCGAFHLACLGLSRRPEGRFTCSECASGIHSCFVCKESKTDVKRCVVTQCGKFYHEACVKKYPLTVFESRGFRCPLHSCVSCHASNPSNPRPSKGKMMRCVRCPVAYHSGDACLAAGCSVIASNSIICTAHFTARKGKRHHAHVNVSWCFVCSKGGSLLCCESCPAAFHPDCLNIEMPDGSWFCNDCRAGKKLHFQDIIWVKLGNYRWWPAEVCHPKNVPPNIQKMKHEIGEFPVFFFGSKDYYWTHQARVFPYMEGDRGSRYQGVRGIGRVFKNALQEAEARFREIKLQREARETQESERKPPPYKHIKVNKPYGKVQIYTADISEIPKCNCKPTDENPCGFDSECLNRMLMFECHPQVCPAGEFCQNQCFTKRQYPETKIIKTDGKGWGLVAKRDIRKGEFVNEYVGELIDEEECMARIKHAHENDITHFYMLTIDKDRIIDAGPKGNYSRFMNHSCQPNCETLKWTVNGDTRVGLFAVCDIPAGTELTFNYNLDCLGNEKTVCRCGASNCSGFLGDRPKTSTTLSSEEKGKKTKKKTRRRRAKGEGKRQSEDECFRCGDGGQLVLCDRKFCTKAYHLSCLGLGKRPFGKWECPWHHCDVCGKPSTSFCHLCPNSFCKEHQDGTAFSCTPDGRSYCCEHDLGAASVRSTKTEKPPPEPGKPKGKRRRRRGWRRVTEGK

[2] = molecular target: Low molecular weight phosphotyrosine protein phosphatase (Homo sapiens, UniProt P24666); assay type: functional; details: read-out: IC50_Mean;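 note: Dose-response confirmation assay measuring inhibition of LMPTP enzyme activity by fluorescence intensity read-out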
Chain of Low molecular weight phosphotyrosine protein phosphatase (P24666 whole entry): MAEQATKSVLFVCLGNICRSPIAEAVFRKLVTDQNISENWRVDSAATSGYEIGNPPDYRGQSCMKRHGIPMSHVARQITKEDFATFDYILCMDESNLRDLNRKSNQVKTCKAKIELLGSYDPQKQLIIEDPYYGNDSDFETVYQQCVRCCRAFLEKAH

[3] = molecular target: T2, Estrogen receptor beta (Homo sapiens, UniProt Q92731);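 note: recombinant ER-beta bound to coactivator SRC1 peptide in presence of estradiol agonist; inhibitors block coactivator peptide binding and lower the FRET signal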
T2 sequence (Q92731 whole entry): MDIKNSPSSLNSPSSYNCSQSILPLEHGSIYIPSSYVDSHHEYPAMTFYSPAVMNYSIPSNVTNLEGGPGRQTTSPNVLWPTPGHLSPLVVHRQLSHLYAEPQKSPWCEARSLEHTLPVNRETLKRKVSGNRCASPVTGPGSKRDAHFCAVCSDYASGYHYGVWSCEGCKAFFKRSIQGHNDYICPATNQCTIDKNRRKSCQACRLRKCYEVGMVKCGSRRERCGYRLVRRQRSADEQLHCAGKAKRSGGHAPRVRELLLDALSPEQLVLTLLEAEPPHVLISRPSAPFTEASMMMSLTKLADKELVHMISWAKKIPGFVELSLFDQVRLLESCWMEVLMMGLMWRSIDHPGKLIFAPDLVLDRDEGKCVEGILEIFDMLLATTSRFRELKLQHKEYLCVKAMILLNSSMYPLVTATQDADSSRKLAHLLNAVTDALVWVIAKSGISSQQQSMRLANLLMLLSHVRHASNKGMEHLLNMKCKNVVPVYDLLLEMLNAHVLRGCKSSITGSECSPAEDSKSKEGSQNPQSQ

[4] = molecular target: T3, Estrogen receptor (Homo sapiens, UniProt P03372);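 note: potency for inhibiting coactivator peptide recruitment to the receptor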
T3 sequence (P03372 whole entry): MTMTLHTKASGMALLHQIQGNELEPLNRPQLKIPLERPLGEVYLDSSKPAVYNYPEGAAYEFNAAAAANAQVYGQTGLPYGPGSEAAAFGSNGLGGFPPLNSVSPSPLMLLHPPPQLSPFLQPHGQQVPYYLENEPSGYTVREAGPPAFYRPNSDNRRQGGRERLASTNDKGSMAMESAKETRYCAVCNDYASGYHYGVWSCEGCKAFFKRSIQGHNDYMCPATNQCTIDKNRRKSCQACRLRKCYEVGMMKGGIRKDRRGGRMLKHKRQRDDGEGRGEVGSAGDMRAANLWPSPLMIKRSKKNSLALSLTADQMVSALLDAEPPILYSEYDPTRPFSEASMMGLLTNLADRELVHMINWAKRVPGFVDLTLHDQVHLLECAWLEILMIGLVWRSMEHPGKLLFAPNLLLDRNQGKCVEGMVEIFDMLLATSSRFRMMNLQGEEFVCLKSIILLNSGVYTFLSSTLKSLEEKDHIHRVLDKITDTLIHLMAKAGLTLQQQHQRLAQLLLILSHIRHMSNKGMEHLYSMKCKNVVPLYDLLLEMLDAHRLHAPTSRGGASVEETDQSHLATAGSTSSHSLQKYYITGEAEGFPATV

[5] = molecular target: T2, Estrogen receptor beta; test: blockers of SRC-3 recruitment to ERβ – biochemical, ELISA, streptavidin-HRP readout, orthogonal assay, confirmation (AID 1060)
[6] = cells; assay type: functional, cell-based; details: HEK-CNG
[7] = molecular target: Galanin receptor type 3 (Homo sapiens, UniProt O60755); test: Fluorescence-based cell-based primary high throughput dose response assay to identify antagonists of the Galanin Receptor 3 (GalR3).; assay type: functional
Chain of Galanin receptor type 3 (O60755 whole entry): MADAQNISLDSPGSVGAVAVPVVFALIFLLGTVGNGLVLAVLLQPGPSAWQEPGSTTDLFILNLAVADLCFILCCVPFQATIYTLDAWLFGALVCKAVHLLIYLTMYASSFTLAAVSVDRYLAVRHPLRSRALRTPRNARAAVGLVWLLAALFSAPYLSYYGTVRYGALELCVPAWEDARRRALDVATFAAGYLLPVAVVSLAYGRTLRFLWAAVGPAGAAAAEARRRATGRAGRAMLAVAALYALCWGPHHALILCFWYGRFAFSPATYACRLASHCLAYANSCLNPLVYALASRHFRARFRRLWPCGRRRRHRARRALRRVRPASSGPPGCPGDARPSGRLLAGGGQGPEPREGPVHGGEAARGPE

[8] = molecular target: Mu-type opioid receptor (Homo sapiens, UniProt P35372); assay type: functional, cell-based;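 note: U2OS cells with beta-arrestin recruitment to OPRM1 by beta-gal complementation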
[9] = molecular target: T4, Coagulation factor XII (Homo sapiens, UniProt P00748); assay type: functional;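 note: activated factor XIIa alpha cleaving a fluorogenic AMC peptide substrate; inhibitor potency from loss of enzyme activity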
T4 sequence (P00748 whole entry): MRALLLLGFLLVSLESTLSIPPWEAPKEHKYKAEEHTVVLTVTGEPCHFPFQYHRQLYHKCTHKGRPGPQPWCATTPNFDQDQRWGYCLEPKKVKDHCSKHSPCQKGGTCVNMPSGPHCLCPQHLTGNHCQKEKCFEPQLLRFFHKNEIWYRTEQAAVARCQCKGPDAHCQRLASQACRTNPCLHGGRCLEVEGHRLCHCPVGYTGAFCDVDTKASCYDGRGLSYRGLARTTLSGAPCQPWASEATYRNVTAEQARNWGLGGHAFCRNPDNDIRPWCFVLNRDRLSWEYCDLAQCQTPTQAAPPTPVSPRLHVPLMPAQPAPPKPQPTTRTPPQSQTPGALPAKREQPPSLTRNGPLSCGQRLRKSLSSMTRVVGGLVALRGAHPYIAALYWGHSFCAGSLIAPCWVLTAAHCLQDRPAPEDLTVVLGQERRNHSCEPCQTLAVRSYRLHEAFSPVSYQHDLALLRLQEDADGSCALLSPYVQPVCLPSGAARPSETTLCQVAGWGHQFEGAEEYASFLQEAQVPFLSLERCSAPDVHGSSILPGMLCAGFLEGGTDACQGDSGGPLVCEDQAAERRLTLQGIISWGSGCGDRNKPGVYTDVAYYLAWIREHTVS

[10] = molecular target: 5-hydroxytryptamine receptor 2A (Mus musculus, UniProt P35363); assay type: functional, cell-based;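 note: CHO-K1 cells with tagged receptor and beta-arrestin; agonist potency measured as compound-induced activation of the receptor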
Chain of 5-hydroxytryptamine receptor 2A (P35363 whole entry): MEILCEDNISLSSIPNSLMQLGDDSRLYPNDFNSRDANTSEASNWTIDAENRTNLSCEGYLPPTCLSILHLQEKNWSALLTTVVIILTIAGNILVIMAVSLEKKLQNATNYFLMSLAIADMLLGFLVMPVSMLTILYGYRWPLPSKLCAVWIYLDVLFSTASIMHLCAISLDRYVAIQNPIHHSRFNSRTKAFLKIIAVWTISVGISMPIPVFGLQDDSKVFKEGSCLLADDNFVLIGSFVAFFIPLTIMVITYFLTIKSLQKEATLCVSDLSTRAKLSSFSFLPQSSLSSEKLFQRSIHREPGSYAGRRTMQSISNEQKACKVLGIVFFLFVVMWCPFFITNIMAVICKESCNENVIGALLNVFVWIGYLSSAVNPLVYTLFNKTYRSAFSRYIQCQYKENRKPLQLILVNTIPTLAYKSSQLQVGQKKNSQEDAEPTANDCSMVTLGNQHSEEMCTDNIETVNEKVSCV

[11] = tested on: HEK293; test: cells; assay type: functional, cell-based; details: Homo sapiens
[12] = molecular target: T5, Beta-2 adrenergic receptor (Homo sapiens, UniProt P07550); test: Dose response for HTS for Beta-2AR agonists via FAP method from Powderset3.; assay type: functional
T5 sequence (P07550 whole entry): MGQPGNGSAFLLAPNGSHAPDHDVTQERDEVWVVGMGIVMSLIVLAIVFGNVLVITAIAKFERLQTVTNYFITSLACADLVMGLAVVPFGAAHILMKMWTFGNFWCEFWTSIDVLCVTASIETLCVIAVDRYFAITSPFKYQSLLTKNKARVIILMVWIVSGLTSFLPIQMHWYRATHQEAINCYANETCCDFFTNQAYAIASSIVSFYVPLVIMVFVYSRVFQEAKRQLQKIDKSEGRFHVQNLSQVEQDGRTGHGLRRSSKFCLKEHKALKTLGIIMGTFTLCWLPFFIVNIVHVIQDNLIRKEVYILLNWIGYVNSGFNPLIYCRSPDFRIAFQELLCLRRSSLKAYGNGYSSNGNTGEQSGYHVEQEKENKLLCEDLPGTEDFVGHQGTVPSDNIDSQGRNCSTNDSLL

[13] = tested on: HEK293; test: NOD2 signaling inhibitors in MDP-stimulated cells, cell-based, uHTS, luminescence (AID 2001); assay type: functional; details: Homo sapiens
[14] = molecular target: T5, Beta-2 adrenergic receptor; test: ADRB2 activation measured by internalization – cell-based, FAP fluorogen, flow cytometry, cherry pick 1, dose response (AID 588763); assay type: functional
[15] = tested on: HEK293; test: inhibition of NOD1-driven NF-kB reporter – cell-based, luminescence, uHTS, primary screen (AID 1578); assay type: functional; details: Homo sapiens
[16] = tested on: HEK293; test: cells; assay type: functional, cell-based; details: Homo sapiens; remark: listed apart in the source
[17] = tested on: Vero; test: cells; assay type: functional; details: Chlorocebus sabaeus
[18] = tested on: Vero; test: cells; assay type: functional, cell-based; details: Chlorocebus sabaeus
[19] = Counterscreen for activators of the function of SWI/SNF related, matrix associated, actin dependent regulator of chromatin, subfamily a, member 2 (SMARCA2, BRM): Luminescence-based cell-based high throughput dose response assay to identify non-selective compounds using the VP16 reporter assay.; assay type: functional
[20] = fluconazole-exposed Candida albicans growth modulators – fluorescence, retest, confirmation (AID 2467); assay type: functional, cell-based
[21] = molecular target: SWI/SNF-related matrix-associated actin-dependent regulator of chromatin subfamily A member 2 (Homo sapiens, UniProt P51531); test: Luminescence-based cell-based high throughput dose response assay to identify activators of the function of SWI/SNF related, matrix associated, actin dependent regulator of chromatin, subfamily a, member 2 (SMARCA2, BRM).; assay type: functional
Chain of SWI/SNF-related matrix-associated actin-dependent regulator of chromatin subfamily A member 2 (P51531 whole entry): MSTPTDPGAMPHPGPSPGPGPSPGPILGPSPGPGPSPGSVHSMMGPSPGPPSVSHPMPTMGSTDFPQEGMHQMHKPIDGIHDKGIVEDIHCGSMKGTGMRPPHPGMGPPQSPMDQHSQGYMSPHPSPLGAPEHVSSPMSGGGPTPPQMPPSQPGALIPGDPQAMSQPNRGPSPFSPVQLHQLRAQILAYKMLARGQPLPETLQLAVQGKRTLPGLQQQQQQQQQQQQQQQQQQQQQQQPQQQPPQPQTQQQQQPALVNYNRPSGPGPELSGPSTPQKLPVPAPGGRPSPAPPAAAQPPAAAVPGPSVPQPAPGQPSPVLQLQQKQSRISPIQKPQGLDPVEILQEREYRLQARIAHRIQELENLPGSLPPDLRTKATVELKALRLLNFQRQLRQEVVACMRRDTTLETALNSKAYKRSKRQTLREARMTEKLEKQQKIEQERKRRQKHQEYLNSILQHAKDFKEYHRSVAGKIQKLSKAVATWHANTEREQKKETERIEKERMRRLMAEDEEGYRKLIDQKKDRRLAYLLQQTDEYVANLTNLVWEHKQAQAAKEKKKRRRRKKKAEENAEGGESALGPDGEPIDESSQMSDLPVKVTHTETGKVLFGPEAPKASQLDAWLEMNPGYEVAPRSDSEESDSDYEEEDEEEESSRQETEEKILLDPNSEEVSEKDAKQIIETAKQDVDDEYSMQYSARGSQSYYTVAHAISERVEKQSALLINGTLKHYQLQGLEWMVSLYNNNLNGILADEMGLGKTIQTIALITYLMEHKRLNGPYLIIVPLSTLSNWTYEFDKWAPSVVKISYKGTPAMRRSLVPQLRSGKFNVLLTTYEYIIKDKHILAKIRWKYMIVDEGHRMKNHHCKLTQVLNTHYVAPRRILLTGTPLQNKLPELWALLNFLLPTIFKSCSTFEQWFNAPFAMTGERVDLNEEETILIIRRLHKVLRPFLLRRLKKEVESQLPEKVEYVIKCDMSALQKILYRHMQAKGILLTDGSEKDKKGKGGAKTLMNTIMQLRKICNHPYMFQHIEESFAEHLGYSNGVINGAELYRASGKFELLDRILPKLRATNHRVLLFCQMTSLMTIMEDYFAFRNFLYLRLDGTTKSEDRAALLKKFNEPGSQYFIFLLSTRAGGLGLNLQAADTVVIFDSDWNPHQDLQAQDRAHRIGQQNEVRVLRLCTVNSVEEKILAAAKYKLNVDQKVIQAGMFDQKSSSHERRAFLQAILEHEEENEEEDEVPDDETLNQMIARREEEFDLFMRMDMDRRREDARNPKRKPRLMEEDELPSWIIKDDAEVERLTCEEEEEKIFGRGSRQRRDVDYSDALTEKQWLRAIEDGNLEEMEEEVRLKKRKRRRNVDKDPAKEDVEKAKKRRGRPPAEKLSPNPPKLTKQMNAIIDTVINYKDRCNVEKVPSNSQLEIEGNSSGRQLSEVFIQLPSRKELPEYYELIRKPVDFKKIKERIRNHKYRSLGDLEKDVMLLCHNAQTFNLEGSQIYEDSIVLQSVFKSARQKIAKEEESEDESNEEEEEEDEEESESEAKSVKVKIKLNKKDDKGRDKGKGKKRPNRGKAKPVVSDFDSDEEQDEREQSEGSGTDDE

[22] = NIH-3T3 fibroblast cytotoxicity, dose response, cytotoxicity control, cell-based, fluorescence, Alamar Blue, secondary assay (AID 2327); assay type: functional;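 note: NIH-3T3 mouse fibroblasts cultured with fluconazole at 8 µg/mL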
[23] = cells; assay type: functional, cell-based
[24] = molecular target: Nuclear receptor subfamily 0 group B member 1 (Homo sapiens, UniProt P51843); assay type: functional, cell-based;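 note: HEK293T cells transfected with SF-1 and DAX-1 plus StAR promoter luciferase reporter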
[25] = molecular target: T6, Sentrin-specific protease 1 (Homo sapiens, UniProt Q9P0U3); test: SENP1 catalytic domain blockers, concentration series – biochemical, kinetic FRET, dose response (AID 651697); assay type: functional; details: read-out: IC50_Mean
T6 sequence (Q9P0U3 whole entry, the tested form may be a part): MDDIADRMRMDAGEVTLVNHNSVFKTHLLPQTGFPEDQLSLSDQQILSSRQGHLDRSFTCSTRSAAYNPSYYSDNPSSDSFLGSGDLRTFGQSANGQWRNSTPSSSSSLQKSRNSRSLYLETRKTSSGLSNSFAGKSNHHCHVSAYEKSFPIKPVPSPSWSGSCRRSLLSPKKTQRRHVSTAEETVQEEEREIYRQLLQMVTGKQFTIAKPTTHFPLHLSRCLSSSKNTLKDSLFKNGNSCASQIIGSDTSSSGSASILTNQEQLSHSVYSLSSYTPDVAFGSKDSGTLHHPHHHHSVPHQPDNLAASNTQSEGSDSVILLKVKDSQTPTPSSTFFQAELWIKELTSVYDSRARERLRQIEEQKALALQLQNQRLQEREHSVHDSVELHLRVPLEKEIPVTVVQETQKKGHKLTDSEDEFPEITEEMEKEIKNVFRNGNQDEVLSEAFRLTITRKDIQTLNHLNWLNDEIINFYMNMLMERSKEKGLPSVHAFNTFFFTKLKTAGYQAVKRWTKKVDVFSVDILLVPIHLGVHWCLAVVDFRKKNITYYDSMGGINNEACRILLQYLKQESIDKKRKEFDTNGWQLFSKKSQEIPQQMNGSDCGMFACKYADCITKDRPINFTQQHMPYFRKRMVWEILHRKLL

[26] = molecular target: T6, Sentrin-specific protease 1; test: Dose response confirmation of small molecule inhibitors of the catalytic domain of the SUMO protease, SENP1 in a FRET assay.; assay type: functional; details: read-out: IC50_Mean
[27] = molecular target: T7, Methionyl-tRNA synthetase, putative (Trypanosoma brucei brucei, UniProt Q38C91); assay type: functional, Trypanosoma brucei brucei strain 927/4 GUTat10.1
T7 sequence (Q38C91 whole entry): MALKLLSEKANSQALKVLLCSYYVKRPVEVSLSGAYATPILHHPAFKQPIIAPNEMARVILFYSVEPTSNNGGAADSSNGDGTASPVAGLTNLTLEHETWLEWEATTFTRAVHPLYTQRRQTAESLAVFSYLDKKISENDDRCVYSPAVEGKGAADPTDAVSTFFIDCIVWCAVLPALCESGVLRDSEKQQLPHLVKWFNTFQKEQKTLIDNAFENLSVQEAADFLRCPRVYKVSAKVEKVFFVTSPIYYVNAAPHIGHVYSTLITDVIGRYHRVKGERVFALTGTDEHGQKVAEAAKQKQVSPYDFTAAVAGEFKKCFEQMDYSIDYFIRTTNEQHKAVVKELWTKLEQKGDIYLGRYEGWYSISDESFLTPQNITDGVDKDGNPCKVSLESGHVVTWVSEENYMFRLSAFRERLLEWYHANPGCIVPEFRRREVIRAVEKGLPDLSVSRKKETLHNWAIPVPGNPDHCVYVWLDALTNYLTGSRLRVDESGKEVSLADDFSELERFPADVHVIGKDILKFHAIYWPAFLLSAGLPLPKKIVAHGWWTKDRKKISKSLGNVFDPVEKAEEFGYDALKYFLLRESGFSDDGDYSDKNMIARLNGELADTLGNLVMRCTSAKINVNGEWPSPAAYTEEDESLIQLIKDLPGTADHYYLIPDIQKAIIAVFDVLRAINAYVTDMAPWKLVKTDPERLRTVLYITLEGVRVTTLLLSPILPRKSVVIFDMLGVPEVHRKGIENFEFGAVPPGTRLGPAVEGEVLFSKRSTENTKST

[28] = molecular target: T7, Methionyl-tRNA synthetase, putative; assay type: functional, Trypanosoma brucei brucei strain 927/4 GUTat10.1; remark: listed apart in the source
[29] = Counterscreen for inhibitors of Trypanosoma brucei methionyl tRNA synthetase (MetRS): Luminescence-based cell-based high throughput dose response assay to identify compounds that are cytotoxic to Jurkat human T lymphocyte cells.; assay type: functional
[30] = tested on: Cryptococcus neoformans; test: PubChem AID 686997; assay type: functional, organism-based
[31] = HIV-1 AD8 envelope cell-cell fusion blockers – cherry-pick, dose response (AID 652062); assay type: functional, cell-based;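 note: luciferase signal from cell-cell fusion driven by HIV-1 clade B AD8 Env; potency is for inhibitors of fusion seen as a drop in luminescence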
[32] = viability loss in CEM21 cells – cell-based, CellTiter-Glo luminescence, cherry-picked, cytotoxicity control for viral fusion inhibitor project, dose response (AID 652042); assay type: functional;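 note: potency for signal decrease meaning cytotoxicity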
[33] = blockers of HIV-1 envelope-mediated cell-cell fusion – cherry-pick, dose response (AID 652057); assay type: functional, cell-based
[34] = tested on: Vero; test: viability loss in Vero cells – cell-based, plate reader, cherry-pick samples, cytotoxicity control, dose response (AID 687020); assay type: functional; details: Chlorocebus sabaeus
[35] = cytotoxicity in HEK293 background cells – cell-based, dry powder, set 2, counter-screen for EBV LMP1 inhibitor project, dose response (AID 624374); assay type: functional
[36] = inhibition of ARNT PAS-B/TACC3 complex formation – biochemical, AlphaScreen, cherry-picked samples, confirmation (AID 651703); assay type: functional, Homo sapiens;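 note: His-tagged ARNT PAS-B domain paired with GST-TACC3 E629A dimer coactivator fragment; potency of inhibitors that break up the complex and lower AlphaScreen signal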
[37] = luciferase reporter signal suppression in cells – H4 neuroglioma cells, luminescence, dose response (AID 1990); assay type: functional, cell-based
[38] = bead-based luminescence quenchers, dual-tagged ARNT – biochemical, AlphaScreen, cherry-pick, artefact control for ARNT-TACC3 interaction inhibitor project, dose response (AID 651705); assay type: functional;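 note: AlphaScreen bead proximity signal that flags compounds interfering with the detection technology; potency reflects signal decrease which marks the compound as an assay artifact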
[39] = Luminescence Cell-Based Dose Response HTS to Identify Inhibitors of 5'UTR Stem-Loop Driven Prion Protein mRNA Translation in H4 Neuroglioblastoma Cells. [Related pubchem assays: 1827 (Project Summary), 1813 (Primary HTS)]; assay type: functional
[40] = alpha-synuclein stem-loop luciferase translation blockers – H4 neuroglioma cells, luminescence, confirmation (AID 1988); assay type: functional, cell-based

CCN(c1ccccc1)S(=O)(=O)c1cc(C(=O)O)ccc1C
AC50 [1]: 9.26 µM (active)
IC50 [2]: 21 µM (inactive)
IC50 [3]: 6.12 µM (active)
IC50 [4]: 13.1 µM (active)
IC50 [5]: 1.83 µM (not active)

Cc1cc(OCC(=O)Nc2ccncc2)c(C)cc1Br
EC50 [6]: > 29.9 µM (inactive)
IC50 [7]: 1.4 µM (active)

Cc1[nH]c2ccccc2c1NC(=O)CN1CCN(C(=O)c2ccco2)CC1
EC50 [8]: 92.4 µM (inactive)
IC50 [9]: > 50 µM (inactive)
EC50 [10]: 4.1 µM (active)

Cn1c(N2CCN(c3ccccn3)CC2)nc2c1c(=O)n(Cc1ccc(Cl)cc1)c(=O)n2C
IC50 [11]: 7.19 µM (active)
EC50 [12]: 0.0074 µM (active)
IC50 [13]: 6 µM (active)
EC50 [14]: 0.081 µM (active)
EC50 [15]: 6.92 µM (active)
IC50 [16]: 10.9 µM (active)

O=C(Nc1ccccc1Cl)c1ccc([N+](=O)[O-])o1
CC50 [17]: 12.2 µM (active)
IC50 [18]: > 25 µM (active)
EC50 [19]: > 91.2 µM (inactive)
EC50 [20]: 1.64 µM (active)
EC50 [21]: > 91.2 µM (inactive)
EC50 [22]: > 160 µM (inactive)

O=[N+]([O-])c1ccc(COc2ccc(CN3CCOCC3)cc2)cc1
IC50 [23]: > 67.5 µM (inactive)
IC50 [24]: > 67.5 µM (inactive)

CC/N=c1\scc(-c2cccs2)n1/N=C/c1cc(OC)ccc1O
IC50 [25]: 18.6 µM (active)
IC50 [26]: 15.8 µM (active)

Cc1ccccc1-c1c[nH]c(C(O)c2cc(Cl)cc(Cl)c2)n1 (stereo not given)
IC50 [27]: 8.47 µM (active)
IC50 [28]: 5.56 µM (active)
IC50 [29]: 83.3 µM (inactive)

COC(=O)C1=C(C)N(Cc2ccc(Br)cc2)C(=S)NC1c1cccc(Cl)c1 (stereo not given)
AC50 [30]: 26.4 µM (active)

C[C@H](CO)N1C[C@H](C)[C@H](CN(C)S(=O)(=O)c2ccccc2)Oc2cc(Br)ccc2S1(=O)=O
AC50 [31]: 38.6 µM (active)
AC50 [32]: 53.4 µM (active)
AC50 [33]: 4.68 µM (active)

COc1ccccc1-c1noc2c1C(=O)N(Cc1cn(Cc3ccccc3)nn1)CC2
AC50 [34]: 32.2 µM (active)

O=C(Cc1ccccn1)NCC[C@@H]1CC[C@@H](NC(=O)Nc2ccc(Cl)cc2)[C@@H](CO)O1
AbsAC35 [35]: 83.87 µM

O=c1oc2ccccc2c(O)c1/C=N/Cc1ccccn1
AC50 [36]: 109 µM (active)

C(=N\Nc1ccc2nncn2n1)/c1ccccn1
EC50 [37]: > 120 µM (not active)
AC50 [38]: 110 µM (active)
EC50 [39]: 11.8 µM (active)
EC50 [40]: > 120 µM (not active)
